Source: ChEMBL document CHEMBL1799927, “Discovery of imidazo[1,2-a]pyrazine-based Aurora kinase inhibitors” (Bioorg Med Chem Lett, 2010)
In brackets after ≈: the same amount, converted by molar mass.

Columns and labels:
Aurora kinase B = Aurora kinase B (Homo sapiens, UniProt Q96GD4); test: Inhibition of aurora B kinase using 5TAMRA-GRTGRRNSICOOH as substrate by fluorescent assay
Aurora kinase A = biological target: T1, Aurora kinase A (Homo sapiens, UniProt O14965); test: Inhibition of aurora A kinase using 5TAMRA-GRTGRRNSICOOH as substrate by fluorescent assay
T1 sequence (O14965 whole entry): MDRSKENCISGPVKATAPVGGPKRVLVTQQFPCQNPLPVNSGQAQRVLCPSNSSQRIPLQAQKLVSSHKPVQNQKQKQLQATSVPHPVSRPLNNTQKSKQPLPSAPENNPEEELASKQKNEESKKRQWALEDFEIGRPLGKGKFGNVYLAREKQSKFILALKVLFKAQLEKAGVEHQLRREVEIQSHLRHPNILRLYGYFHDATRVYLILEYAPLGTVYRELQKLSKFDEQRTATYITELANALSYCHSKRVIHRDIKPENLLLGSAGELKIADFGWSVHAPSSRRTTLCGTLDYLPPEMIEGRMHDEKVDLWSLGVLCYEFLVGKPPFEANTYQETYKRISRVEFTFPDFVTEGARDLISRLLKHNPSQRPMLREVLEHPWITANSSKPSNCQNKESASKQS

cells = assay type: cell-based; details: Homo sapiens, HCT-116, 1 h
[1] = biological target: Mitogen-activated protein kinase 1 (Homo sapiens, UniProt P28482); test: Inhibition of ERK2
Sequence of Mitogen-activated protein kinase 1 (P28482 whole entry): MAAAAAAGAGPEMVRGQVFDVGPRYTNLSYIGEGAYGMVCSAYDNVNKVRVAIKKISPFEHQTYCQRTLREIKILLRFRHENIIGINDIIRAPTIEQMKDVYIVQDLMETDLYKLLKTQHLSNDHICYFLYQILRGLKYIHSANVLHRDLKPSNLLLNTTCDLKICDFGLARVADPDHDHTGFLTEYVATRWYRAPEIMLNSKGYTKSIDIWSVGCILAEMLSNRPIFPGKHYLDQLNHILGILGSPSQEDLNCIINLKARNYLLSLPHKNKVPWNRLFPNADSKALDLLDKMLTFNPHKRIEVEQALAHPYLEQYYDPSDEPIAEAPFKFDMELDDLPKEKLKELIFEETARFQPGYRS

[2] = biological target: Interleukin-1 receptor-associated kinase 4 (Homo sapiens, UniProt Q9NWZ3); test: Inhibition of IRAK4
Sequence of Interleukin-1 receptor-associated kinase 4 (Q9NWZ3 whole entry): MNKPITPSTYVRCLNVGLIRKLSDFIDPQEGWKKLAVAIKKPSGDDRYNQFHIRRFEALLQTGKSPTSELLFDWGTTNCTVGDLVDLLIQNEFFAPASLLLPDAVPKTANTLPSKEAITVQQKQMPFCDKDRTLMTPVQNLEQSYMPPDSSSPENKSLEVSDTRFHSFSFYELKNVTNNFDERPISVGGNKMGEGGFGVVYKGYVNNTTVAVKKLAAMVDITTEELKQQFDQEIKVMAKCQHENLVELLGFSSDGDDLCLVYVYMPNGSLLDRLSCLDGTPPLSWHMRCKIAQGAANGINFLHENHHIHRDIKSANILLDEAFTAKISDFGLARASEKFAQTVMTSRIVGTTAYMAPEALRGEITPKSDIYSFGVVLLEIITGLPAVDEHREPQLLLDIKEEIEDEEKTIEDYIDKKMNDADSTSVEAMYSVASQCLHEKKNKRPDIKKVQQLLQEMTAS

[3] = biological target: Serine/threonine-protein kinase Chk1 (Homo sapiens, UniProt O14757); test: Inhibition of Chk1
[4] = biological target: Calcium/calmodulin-dependent protein kinase type IV (Homo sapiens, UniProt Q16566); test: Inhibition of Camk4
[5] = biological target: RAC-alpha serine/threonine-protein kinase (Homo sapiens, UniProt P31749); test: Inhibition of Akt1
[6] = Oral bioavailability in mouse; assay type: ADME, organism-based; details: in vivo
[7] = Aqueous solubility of the compound; assay type: physicochemical; details: buffer
[8] = Clearance in mouse; assay type: ADME, organism-based; details: in vivo
[9] = Clearance in human hepatocytes assessed per million cells; assay type: ADME, cell-based, Liver, Hepatocyte
[10] = Permeability across apical to basolateral side in human Caco2 cell membrane; assay type: ADME, cell-based; details: Caco-2, read-out: permeability
[11] = Plasma protein binding in human; assay type: ADME, cell-free; details: read-out: PPB (converted)
hERG (KCNH2) = hERG (KCNH2) (Homo sapiens, UniProt Q12809); test: Inhibition of human ERG assessed as Rb efflux at 1.5 ug/ml
Cytochrome P450 2C9 = Cytochrome P450 2C9 (Homo sapiens, UniProt P11712); test: inhibition of CYP2C9; assay type: ADME
Sequence of Cytochrome P450 2C9 (P11712 whole entry): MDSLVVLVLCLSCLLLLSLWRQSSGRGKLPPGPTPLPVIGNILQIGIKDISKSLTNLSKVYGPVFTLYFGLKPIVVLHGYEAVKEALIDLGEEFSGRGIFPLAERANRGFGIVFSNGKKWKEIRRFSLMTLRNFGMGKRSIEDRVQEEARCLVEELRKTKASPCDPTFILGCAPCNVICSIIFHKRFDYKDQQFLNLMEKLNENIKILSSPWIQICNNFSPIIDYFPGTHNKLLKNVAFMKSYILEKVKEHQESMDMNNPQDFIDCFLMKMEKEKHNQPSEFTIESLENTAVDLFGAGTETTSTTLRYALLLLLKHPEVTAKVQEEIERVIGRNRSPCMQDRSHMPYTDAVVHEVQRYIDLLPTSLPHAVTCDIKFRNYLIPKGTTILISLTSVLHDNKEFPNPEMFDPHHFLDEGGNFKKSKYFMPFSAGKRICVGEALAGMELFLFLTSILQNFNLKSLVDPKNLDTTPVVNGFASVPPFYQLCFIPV

Cytochrome P450 2D6 = Cytochrome P450 2D6 (Homo sapiens, UniProt P10635); test: inhibition of CYP2D6; assay type: ADME
Sequence of Cytochrome P450 2D6 (P10635 whole entry): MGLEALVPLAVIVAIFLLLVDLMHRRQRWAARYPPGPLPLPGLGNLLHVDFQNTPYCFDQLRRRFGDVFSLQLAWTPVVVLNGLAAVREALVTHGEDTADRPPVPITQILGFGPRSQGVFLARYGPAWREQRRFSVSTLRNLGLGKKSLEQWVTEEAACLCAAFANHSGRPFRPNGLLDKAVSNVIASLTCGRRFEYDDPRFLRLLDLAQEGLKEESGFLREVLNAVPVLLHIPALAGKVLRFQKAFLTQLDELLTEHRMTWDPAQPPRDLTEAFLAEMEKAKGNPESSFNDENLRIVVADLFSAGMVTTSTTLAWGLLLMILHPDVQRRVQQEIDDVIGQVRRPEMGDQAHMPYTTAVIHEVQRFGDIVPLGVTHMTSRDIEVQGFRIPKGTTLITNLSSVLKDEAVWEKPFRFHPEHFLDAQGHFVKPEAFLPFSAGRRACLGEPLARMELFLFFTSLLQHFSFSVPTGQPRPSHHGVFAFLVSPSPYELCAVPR

Cytochrome P450 3A4 = Cytochrome P450 3A4 (Homo sapiens, UniProt P08684); test: inhibition of CYP3A4; assay type: ADME
[12] = Inhibition of IGRF
[13] = biological target: Inhibitor of nuclear factor kappa-B kinase subunit beta (Homo sapiens, UniProt O14920); test: Inhibition of IKKb
[14] = biological target: Tyrosine-protein kinase JAK2 (Homo sapiens, UniProt O60674); test: Inhibition of Jak2
[15] = biological target: Tyrosine-protein kinase Lck (Homo sapiens, UniProt P06239); test: Inhibition of LCK
Sequence of Tyrosine-protein kinase Lck (P06239 whole entry): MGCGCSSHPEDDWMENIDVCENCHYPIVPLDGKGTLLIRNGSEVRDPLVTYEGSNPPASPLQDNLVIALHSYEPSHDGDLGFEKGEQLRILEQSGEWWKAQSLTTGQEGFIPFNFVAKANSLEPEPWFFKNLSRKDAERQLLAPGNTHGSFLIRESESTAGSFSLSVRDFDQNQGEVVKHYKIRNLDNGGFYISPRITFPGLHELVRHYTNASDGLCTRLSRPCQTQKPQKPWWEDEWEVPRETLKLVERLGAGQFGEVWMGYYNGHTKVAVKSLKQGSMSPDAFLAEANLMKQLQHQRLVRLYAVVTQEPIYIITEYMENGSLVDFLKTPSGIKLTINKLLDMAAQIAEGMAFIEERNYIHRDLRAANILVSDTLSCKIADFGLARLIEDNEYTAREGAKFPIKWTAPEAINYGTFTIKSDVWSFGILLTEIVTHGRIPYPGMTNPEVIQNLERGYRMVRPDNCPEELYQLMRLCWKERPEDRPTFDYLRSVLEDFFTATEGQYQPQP

[16] = biological target: Hepatocyte growth factor receptor (Homo sapiens, UniProt P08581); test: Inhibition of cMet
[17] = biological target: Serine/threonine-protein kinase 3 (Homo sapiens, UniProt Q13188); test: Inhibition of MST2
[18] = biological target: Protein kinase C alpha type (Homo sapiens, UniProt P17252); test: Inhibition of PKCa
[19] = biological target: Serine/threonine-protein kinase PLK3 (Homo sapiens, UniProt Q9H4B4); test: Inhibition of PLK3
Sequence of Serine/threonine-protein kinase PLK3 (Q9H4B4 whole entry): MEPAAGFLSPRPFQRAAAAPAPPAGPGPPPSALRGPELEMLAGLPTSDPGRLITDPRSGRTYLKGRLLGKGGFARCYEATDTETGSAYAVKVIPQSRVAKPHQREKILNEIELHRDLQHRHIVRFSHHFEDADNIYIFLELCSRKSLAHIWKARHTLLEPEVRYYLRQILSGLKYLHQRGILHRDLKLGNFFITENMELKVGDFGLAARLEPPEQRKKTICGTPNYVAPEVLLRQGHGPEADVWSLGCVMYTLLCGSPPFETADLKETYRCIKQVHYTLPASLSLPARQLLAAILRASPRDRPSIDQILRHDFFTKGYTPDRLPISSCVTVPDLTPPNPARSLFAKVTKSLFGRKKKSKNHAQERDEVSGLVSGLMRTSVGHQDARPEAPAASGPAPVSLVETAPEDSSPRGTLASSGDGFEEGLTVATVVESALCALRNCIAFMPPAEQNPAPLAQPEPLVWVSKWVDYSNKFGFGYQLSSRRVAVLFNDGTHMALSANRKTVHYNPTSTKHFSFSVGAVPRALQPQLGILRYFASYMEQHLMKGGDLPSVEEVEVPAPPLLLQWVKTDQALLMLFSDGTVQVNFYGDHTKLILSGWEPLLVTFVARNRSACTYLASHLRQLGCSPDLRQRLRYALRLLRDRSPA

[20] = biological target: Rho-associated protein kinase 2 (Homo sapiens, UniProt O75116); test: Inhibition of Rock2
Sequence of Rho-associated protein kinase 2 (O75116 whole entry): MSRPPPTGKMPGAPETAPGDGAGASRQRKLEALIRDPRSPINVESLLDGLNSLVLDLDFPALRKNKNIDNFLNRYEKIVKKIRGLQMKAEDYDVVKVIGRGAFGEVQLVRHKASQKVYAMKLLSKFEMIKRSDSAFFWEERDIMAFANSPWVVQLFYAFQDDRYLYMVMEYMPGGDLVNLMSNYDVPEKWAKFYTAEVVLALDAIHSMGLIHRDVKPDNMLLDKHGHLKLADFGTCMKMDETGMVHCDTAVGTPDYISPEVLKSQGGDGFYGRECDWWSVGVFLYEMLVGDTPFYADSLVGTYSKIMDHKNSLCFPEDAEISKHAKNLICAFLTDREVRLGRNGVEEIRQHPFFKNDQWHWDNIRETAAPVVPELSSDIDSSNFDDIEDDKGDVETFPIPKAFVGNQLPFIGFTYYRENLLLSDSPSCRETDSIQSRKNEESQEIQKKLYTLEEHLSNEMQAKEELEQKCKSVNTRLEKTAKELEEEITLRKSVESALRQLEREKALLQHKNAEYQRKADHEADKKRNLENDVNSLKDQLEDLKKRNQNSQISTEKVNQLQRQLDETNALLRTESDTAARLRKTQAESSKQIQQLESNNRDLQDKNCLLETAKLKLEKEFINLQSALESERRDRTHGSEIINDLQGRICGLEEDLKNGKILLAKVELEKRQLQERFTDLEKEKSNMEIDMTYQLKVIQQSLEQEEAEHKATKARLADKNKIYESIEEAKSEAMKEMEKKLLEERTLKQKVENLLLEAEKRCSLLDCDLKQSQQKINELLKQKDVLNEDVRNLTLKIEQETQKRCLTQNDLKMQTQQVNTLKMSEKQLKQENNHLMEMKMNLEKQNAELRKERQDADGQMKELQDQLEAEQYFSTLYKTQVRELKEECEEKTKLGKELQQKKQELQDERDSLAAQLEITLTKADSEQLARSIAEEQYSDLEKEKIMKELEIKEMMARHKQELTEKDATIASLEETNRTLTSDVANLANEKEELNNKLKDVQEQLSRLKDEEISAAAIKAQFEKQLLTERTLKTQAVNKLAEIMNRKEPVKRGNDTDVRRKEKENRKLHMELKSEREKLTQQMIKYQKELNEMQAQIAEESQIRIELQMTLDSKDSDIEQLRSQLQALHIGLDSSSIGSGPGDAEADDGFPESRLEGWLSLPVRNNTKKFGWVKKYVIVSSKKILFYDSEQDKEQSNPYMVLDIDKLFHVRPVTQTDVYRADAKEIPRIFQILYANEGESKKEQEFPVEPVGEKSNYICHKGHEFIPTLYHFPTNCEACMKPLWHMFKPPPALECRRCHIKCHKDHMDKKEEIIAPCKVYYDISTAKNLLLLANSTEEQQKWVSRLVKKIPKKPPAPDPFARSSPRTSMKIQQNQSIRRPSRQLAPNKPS

[21] = biological target: Ribosomal protein S6 kinase alpha-3 (Homo sapiens, UniProt P51812); test: Inhibition of RSK2
[22] = biological target: Testis-specific serine/threonine-protein kinase 2 (Homo sapiens, UniProt Q96PF2); test: Inhibition of TSSK2
[23] = biological target: Vascular endothelial growth factor receptor 2 (Homo sapiens, UniProt P35968); test: Inhibition of VEGFR2

Sequence of Aurora kinase B (Q96GD4 whole entry): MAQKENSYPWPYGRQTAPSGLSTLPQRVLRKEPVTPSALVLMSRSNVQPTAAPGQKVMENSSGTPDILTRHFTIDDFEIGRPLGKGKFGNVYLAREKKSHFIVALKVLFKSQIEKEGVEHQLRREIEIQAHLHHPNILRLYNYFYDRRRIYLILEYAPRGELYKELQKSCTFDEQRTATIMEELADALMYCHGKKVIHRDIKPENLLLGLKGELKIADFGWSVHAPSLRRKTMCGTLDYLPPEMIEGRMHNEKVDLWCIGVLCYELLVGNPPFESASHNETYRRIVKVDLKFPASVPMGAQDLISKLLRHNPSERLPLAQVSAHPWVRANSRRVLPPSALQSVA

Cc1cc(Nc2nc(C(F)(F)F)cn3c(-c4cn[nH]c4)cnc23)sn1
IC50 (Aurora kinase B; read-out: IC50): 252 nM | IC50 (Aurora kinase A): 27 nM | EC50 (cells): > 10000 nM

Cc1nsc(Nc2nccn3c(-c4cnn(C)c4)cnc23)n1
IC50 (Aurora kinase B): Not Active | IC50 (Aurora kinase A): > 10000 nM

Cc1cc(Nc2nc(C)cn3c(-c4cn[nH]c4)cnc23)sn1
IC50 (Aurora kinase B; read-out: IC50): ≤ 13 nM | EC50 (cells): 250 nM

Cc1cc(Nc2nc(CN3CCOCC3)cn3c(-c4cn[nH]c4)cnc23)sn1
IC50 (Aurora kinase B; read-out: IC50): 110 nM | IC50 (Aurora kinase A): 50 nM | EC50 (cells): > 10000 nM

Cn1cc(-c2cnc3c(Nc4cc(C5CCNCC5)ns4)nccn23)cn1
IC50 (Aurora kinase B; read-out: IC50): 200 nM | IC50 (Aurora kinase A): 1600 nM

Cc1cc(Nc2nc(CCN)cn3c(-c4cn[nH]c4)cnc23)sn1
IC50 (Aurora kinase B; read-out: IC50): 33 nM | IC50 (Aurora kinase A): 83 nM | EC50 (cells): > 10000 nM

Cn1cc(-c2cnc3c(Nc4cc(C5CCN(S(C)(=O)=O)CC5)ns4)nccn23)cn1
IC50 (Aurora kinase B; read-out: IC50): 110 nM | IC50 (Aurora kinase A): 170 nM

CN(C)c1cccc(Nc2nccn3c(-c4cnn(C)c4)cnc23)c1
IC50 (Aurora kinase B): Not Active | IC50 (Aurora kinase A): > 10000 nM

Cc1csc(Nc2nccn3c(-c4cnn(C)c4)cnc23)c1
IC50 (Aurora kinase B; read-out: IC50): 3000 nM | IC50 (Aurora kinase A): 2500 nM

Cc1cc(Nc2nc(Sc3ccc(F)cc3)cn3c(-c4cn[nH]c4)cnc23)sn1
IC50 (Aurora kinase B; read-out: IC50): 129 nM | EC50 (cells): 2500 nM

Cc1cc(Nc2nc([S+](C)[O-])cn3c(-c4cn[nH]c4)cnc23)sn1 (racemic)
IC50 (Aurora kinase B; read-out: IC50): 185 nM | IC50 (Aurora kinase A): 30 nM | EC50 (cells): > 10000 nM

CSc1cn2c(-c3cn[nH]c3)cnc2c(Nc2cc(C)ns2)n1
IC50 (Aurora kinase B; read-out: IC50): ≤ 13 nM | EC50 (cells): 600 nM | IC50 [1]: > 10000 nM | IC50 [2]: 167 nM | IC50 [3]: 187 nM | IC50 [4]: > 10000 nM | IC50 [5]: > 10000 nM | bioavailability [6]: 4% | solubility [7]: 25 µM (≈ 8.59 µg/mL) | clearance [8]: 89 mL/min/kg | hepatocyte CLint [9]: 49.7 µL/min/1e6 cells | Papp A→B [10]: 63.3 ×10⁻⁶ cm/s | fraction unbound [11]: 0.006 | inhibition at 1.5 ug/ml (hERG (KCNH2)): 8.7% | INH (Cytochrome P450 2C9): > 20 µM | INH (Cytochrome P450 2D6): > 20 µM | INH (Cytochrome P450 3A4): > 20 µM | IC50 [12]: > 10000 nM | IC50 [13]: > 10000 nM | IC50 [14]: > 10000 nM | IC50 [15]: 468 nM | IC50 [16]: > 10000 nM | IC50 [17]: > 10000 nM | IC50 [18]: > 10000 nM | IC50 [19]: 785 nM | IC50 [20]: > 10000 nM | IC50 [21]: 1310 nM | IC50 [22]: > 10000 nM | IC50 [23]: 36 nM

CCc1cn2c(-c3cn[nH]c3)cnc2c(Nc2cc(C)ns2)n1
IC50 (Aurora kinase B; read-out: IC50): ≤ 13 nM | EC50 (cells): 850 nM

Cc1cc(Nc2nc(C3CC3)cn3c(-c4cn[nH]c4)cnc23)sn1
IC50 (Aurora kinase B; read-out: IC50): 51 nM | IC50 (Aurora kinase A): 17 nM | EC50 (cells): 2600 nM

O=S(=O)(c1ccc(Nc2nccn3c(-c4cn[nH]c4)cnc23)cc1)N1CCOCC1
IC50 (Aurora kinase B; read-out: IC50): 120 nM | IC50 (Aurora kinase A): 81 nM

Cc1cc(Nc2nc(SCCN(C)C)cn3c(-c4cn[nH]c4)cnc23)sn1
EC50 (cells): > 10000 nM

CN(C)S(=O)(=O)c1ccc(Nc2nccn3c(-c4cnn(C)c4)cnc23)cc1
IC50 (Aurora kinase B): Not Active | IC50 (Aurora kinase A): 3700 nM

CCSc1cn2c(-c3cn[nH]c3)cnc2c(Nc2cc(C)ns2)n1
IC50 (Aurora kinase B; read-out: IC50): 24 nM

Cc1cc(Nc2nc(-c3cccnc3)cn3c(-c4cn[nH]c4)cnc23)sn1
IC50 (Aurora kinase B; read-out: IC50): 62 nM | IC50 (Aurora kinase A): 8 nM | EC50 (cells): > 10000 nM

Cc1csc(Nc2nccn3c(-c4cnn(C)c4)cnc23)n1
IC50 (Aurora kinase B): Not Active | IC50 (Aurora kinase A): > 10000 nM

Cc1cc(Nc2nccn3c(-c4cnn(C)c4)cnc23)sn1
IC50 (Aurora kinase B; read-out: IC50): 360 nM | IC50 (Aurora kinase A): 570 nM

Cc1cc(Nc2nccn3c(-c4cn[nH]c4)cnc23)sn1
IC50 (Aurora kinase B; read-out: IC50): ≤ 13 nM | IC50 (Aurora kinase A): ≤ 4 nM | EC50 (cells): 1300 nM

Cc1cc(Nc2nc(S(C)(=O)=O)cn3c(-c4cn[nH]c4)cnc23)sn1
IC50 (Aurora kinase B; read-out: IC50): > 3000 nM | IC50 (Aurora kinase A): 603 nM

CC(C)c1cc(Nc2nccn3c(-c4cnn(C)c4)cnc23)sn1
IC50 (Aurora kinase B; read-out: IC50): 700 nM | IC50 (Aurora kinase A): 640 nM

Cc1cc(Nc2nc(SC(C)(C)C)cn3c(-c4cn[nH]c4)cnc23)sn1
IC50 (Aurora kinase B; read-out: IC50): 272 nM | EC50 (cells): 5600 nM

Cc1cc(Nc2nc(C#N)cn3c(-c4cn[nH]c4)cnc23)sn1
IC50 (Aurora kinase B; read-out: IC50): 219 nM | IC50 (Aurora kinase A): 46 nM | EC50 (cells): > 10000 nM

CS(=O)(=O)N1CCC(c2cc(Nc3nccn4c(-c5cn[nH]c5)cnc34)sn2)CC1
IC50 (Aurora kinase B; read-out: IC50): 18 nM | IC50 (Aurora kinase A): 6 nM | EC50 (cells): 1300 nM
